From ChEMBL document CHEMBL1138176, “Synthesis and structure-activity relationship of small-molecule malonyl coenzyme A decarboxylase inhibitors” (J Med Chem, 2006) come the findings set out here.

Molecules are shown by their SMILES. ≈ marks a conversion by molar mass, not a printed value. Calls of active or inactive are those of the source. The rule behind the calls is not given here.

Tested on in the first data set: not listed separately
In words: Solubility in PBS at pH 7.4.
Details: not given
As for `CCN(C(=O)N1CCOCC1)c1ccc(C(O)(C(F)(F)F)C(F)(F)F)cc1`, the solubility (usually how much of the substance goes into solution per volume) is 189 µM (≈ 75.8 µg/mL).
For the molecule `CCN(CCCCO)C(=O)N(CC)c1ccc(C(O)(C(F)(F)F)C(F)(F)F)cc1`, the concentration in solution (solubility) came to 187 µM (≈ 80.6 µg/mL).
The same measure, in the same setting: as for `O=C(O)CCCCN(C(=O)N1CCOCC1)c1ccc(C(O)(C(F)(F)F)C(F)(F)F)cc1`, the figure is 206 µM (≈ 97.1 µg/mL); as for `CCN(C(=O)c1ccc(C#N)cc1)c1ccc(C(O)(C(F)(F)F)C(F)(F)F)cc1`, 8.7 µM (≈ 3.62 µg/mL).

The species entered for a further data set is Sus scrofa. As to the kind of experiment: Decrease in lactate production in ischemic pig heart. The data set is classed as functional, organism-based.
Details: not given
Regarding `COC(=O)CCCCN(C(=O)N1CCOCC1)c1ccc(C(O)(C(F)(F)F)C(F)(F)F)cc1`, the outcome was Active.

In the next data set the target is T1, Malonyl-CoA decarboxylase, mitochondrial (Homo sapiens, UniProt O95822).
T1 sequence (O95822 whole entry): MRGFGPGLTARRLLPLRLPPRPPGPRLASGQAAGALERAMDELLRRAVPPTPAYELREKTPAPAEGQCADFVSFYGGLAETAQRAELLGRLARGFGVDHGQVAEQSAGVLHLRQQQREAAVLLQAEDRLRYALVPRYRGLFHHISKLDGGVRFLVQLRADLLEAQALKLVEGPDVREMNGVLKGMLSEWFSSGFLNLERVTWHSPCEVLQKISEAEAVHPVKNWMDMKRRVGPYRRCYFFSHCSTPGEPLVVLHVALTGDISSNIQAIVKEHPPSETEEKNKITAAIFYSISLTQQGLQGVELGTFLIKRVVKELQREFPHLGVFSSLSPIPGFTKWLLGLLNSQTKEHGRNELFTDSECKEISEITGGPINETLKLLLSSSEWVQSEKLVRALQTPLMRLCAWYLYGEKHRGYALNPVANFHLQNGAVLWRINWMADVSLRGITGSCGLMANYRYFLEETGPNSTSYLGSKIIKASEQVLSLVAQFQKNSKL
As to the kind of experiment: Inhibition of MCD at 10 uM.
Details: not given
Turning to `O=C(Nc1ccccc1)Nc1ccc(C(O)(C(F)(F)F)C(F)(F)F)cc1`, the IC50 entry is listed as “Not Active”.
The same measure, in the same setting: the entry for `O=C(Nc1ccc(C(O)(C(F)(F)F)C(F)(F)F)cc1)N1CCOCC1` is “Not Active”; for `CC(C)C(=O)Nc1ccc(C(O)(C(F)(F)F)C(F)(F)F)cc1` it is “Not Active”.

Tested on in the next data set: not listed separately
In words: Caco-2 cell membrane permeability. The note with it: human.
Take `CCN(C(=O)N1CCOCC1)c1ccc(C(O)(C(F)(F)F)C(F)(F)F)cc1`: the Papp (commonly a coefficient for how fast a substance crosses the barrier) came out at 68.2 ×10⁻⁶ cm/s.
Still for that read-out and setting: the figure for `CCN(CCCCO)C(=O)N(CC)c1ccc(C(O)(C(F)(F)F)C(F)(F)F)cc1` is 49.4 ×10⁻⁶ cm/s; for `CCN(C(=O)c1ccc(C#N)cc1)c1ccc(C(O)(C(F)(F)F)C(F)(F)F)cc1` it is 38.7 ×10⁻⁶ cm/s.

Tested on in a further data set: not listed separately
As to the kind of experiment: Stability in human liver microsomes at 5 uM.
Details: not given
In general terms: Liver microsomes are a subcellular fraction often used to study metabolism.
In the case of `CCN(C(=O)N1CCOCC1)c1ccc(C(O)(C(F)(F)F)C(F)(F)F)cc1`, the amount remaining at 5 µM was 87%.
Same read-out and setting: the figure for `CCN(CCCCO)C(=O)N(CC)c1ccc(C(O)(C(F)(F)F)C(F)(F)F)cc1` is 51%; for `O=C(O)CCCCN(C(=O)N1CCOCC1)c1ccc(C(O)(C(F)(F)F)C(F)(F)F)cc1` it is 99%.
Same read-out and setting: the figure for `CCN(C(=O)c1ccc(C#N)cc1)c1ccc(C(O)(C(F)(F)F)C(F)(F)F)cc1` is 93%.

Tested on in the next data set: not listed separately
In words: Stability in rat liver microsomes at 5 uM.
Details: not given
Turning to `CCN(C(=O)N1CCOCC1)c1ccc(C(O)(C(F)(F)F)C(F)(F)F)cc1`, the amount remaining at 5 µM was 9%.
Turning to `CCN(CCCCO)C(=O)N(CC)c1ccc(C(O)(C(F)(F)F)C(F)(F)F)cc1`, the fraction remaining at 5 µM was 7%.
On the same count and under the same terms, the figure for `O=C(O)CCCCN(C(=O)N1CCOCC1)c1ccc(C(O)(C(F)(F)F)C(F)(F)F)cc1` is 108%; for `CCN(C(=O)c1ccc(C#N)cc1)c1ccc(C(O)(C(F)(F)F)C(F)(F)F)cc1` it is 66%.
